Results on 56 molecules are retold here after patent US12583858B2 (Genentech, Inc., priority 2015, dated 2026).

Structures are written as SMILES. Where only a bound is given, the exact number is not on record here.

T1 sequence (P48775 whole entry): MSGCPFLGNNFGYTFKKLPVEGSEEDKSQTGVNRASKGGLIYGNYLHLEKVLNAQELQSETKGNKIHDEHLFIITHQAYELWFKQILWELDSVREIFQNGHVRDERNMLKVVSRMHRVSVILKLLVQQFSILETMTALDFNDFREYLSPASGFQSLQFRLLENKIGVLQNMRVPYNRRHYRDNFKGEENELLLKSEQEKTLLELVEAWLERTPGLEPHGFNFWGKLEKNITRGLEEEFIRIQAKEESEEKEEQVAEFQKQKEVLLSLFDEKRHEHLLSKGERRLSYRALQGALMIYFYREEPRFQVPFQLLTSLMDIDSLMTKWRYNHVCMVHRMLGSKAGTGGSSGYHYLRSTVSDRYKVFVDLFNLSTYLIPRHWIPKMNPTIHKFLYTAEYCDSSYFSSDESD

This assay concerns the target T1, TDO2 (Homo sapiens, UniProt P48775).
T1 construct: decreased levels of NFK in SW48 cells (high TDO expressing cells)
The assay is described as follows: TDO2 cell assay (NFK GreenScreen, SW48 cells). Format: cell-based. Particulars: SW48 cells (high TDO expressing), 200 uM tryptophan, 24 hours; Table 3; read-out: TDO2 Cell Fluor EC50.
As for `NS(=O)(=O)N1CCC2(CC1)CC(C1c3ccccc3-c3cncn31)C2O` (single isomer, unassigned) [Example 181d], the EC50 stood at 3 µM. The result for `CS(=O)(=O)N1CC[C@@H]([C@H]2c3ccccc3-c3cncn32)[C@H](O)C1` (single isomer, unassigned) [Example 64d] reads 2.5 µM.

For the molecule `OC1c2nonc2CCC1C1c2ccccc2-c2cncn21` (single isomer, unassigned) [Example 163h], the EC50 stood at 0.93 µM.

In the case of `CS(=O)(=O)c1ccc2c(c1)CCC(C1c3ccccc3-c3cncn31)C2O` (single isomer, unassigned) [Example 36f], the EC50 came to 0.14 µM. With `OC1c2nonc2CCC1C1c2ccccc2-c2cncn21` (single isomer, unassigned) [Example 163d], the half-maximal effective concentration (EC50) came out at 0.054 µM. The result for `OC1CC2(CC2)C1C1c2ccccc2-c2cncn21` (single isomer, unassigned) [Example 72e] reads 0.052 µM; that for `CN1CC[C@H]([C@H]2c3ccccc3-c3cncn32)[C@@H](O)C1` [Example 83a, (3R,4R)-4-[(5S)-5H-imidazo[4,3-a]isoindol-5-yl]-1-methylpiperidin-3-ol], > 25 µM.

Take `OC1c2[nH]ncc2CCC1C1c2ccccc2-c2cncn21` (single isomer, unassigned) [Example 157f]: the EC50 was > 25 µM. The result for `OC1CCOCC1C1c2cc(F)ccc2-c2cncn21` (single isomer, unassigned) [Example 75a] reads > 25 µM. The result for `CC(O)(c1ncc[nH]1)C1c2ccccc2-c2cncn21` (single isomer, unassigned) [Example 143d] reads > 25 µM; that for `OC1CC2(CCC2)C1C1c2ccccc2-c2cncn21` (single isomer, unassigned) [Example 67h], 16 µM. Take `OC1c2ccccc2CCC1C1c2ccccc2-c2cncn21` (single isomer, unassigned) [Example 102a]: the EC50 came out at 0.072 µM.

As for `O[C@@H](C1CCOCC1)[C@@H]1c2ccccc2-c2cncn21` (single isomer, unassigned) [Example 138c], the EC50 is > 25 µM. As for `NS(=O)(=O)N1CCC2(CC1)CC(C1c3ccccc3-c3cncn31)C2O` (single isomer, unassigned) [Example 181g], the EC50 stood at 0.93 µM. The result for `OC1CCCCCC1C1c2ccccc2-c2cncn21` (single isomer, unassigned) [Example 115c, 2-(5H-imidazo[5,1-a]isoindol-5-yl)cycloheptan-1-ol] reads 0.05 µM; that for `CC(C)(C(N)=O)C(O)C1c2ccccc2-c2cncn21` (single isomer, unassigned) [Example 155c], 21 µM. The result for `Nc1cc2n(n1)CCC(C1c3ccccc3-c3cncn31)C2O` (single isomer, unassigned) [Example 161h] reads 18 µM.

In the case of `Cc1nc2c(o1)CCC(C1c3ccccc3-c3cncn31)C2O` (single isomer, unassigned) [Example 178a], the EC50 was 0.12 µM.

Turning to `CC1(C)OC(C)(C)C(C2c3ccccc3-c3cncn32)C1O` (single isomer, unassigned) [Example 84d], the EC50 was determined as 3.6 µM. On to `OC1(C2c3ccccc3-c3cncn32)CCCc2ccncc21` (single isomer, unassigned) [Example 141a], for which the EC50 amounted to 17 µM. The result for `CCS(=O)(=O)N1CCC2(CC1)C[C@@H]([C@@H]1c3ccccc3-c3cncn31)[C@@H]2O` [Example 114b, (1S,2S)-7-(ethylsulfonyl)-2-((R)-5H-imidazo[5,1-a]isoindol-5-yl)-7-azaspiro[3.5]nonan-1-ol] reads > 25 µM; that for `CC1(C)CC(O)(C2c3ccccc3-c3cncn32)C1` (racemic) [Example 147a, 1-(5H-imidazo[5,1-a]isoindol-5-yl)-3,3-dimethylcyclobutan-1-ol], 0.81 µM. The result for `CC(C)S(=O)(=O)N1CC[C@@H]([C@H]2c3ccccc3-c3cncn32)[C@H](O)C1` (single isomer, unassigned) [Example 80a] reads > 25 µM; that for `OC1c2cccnc2CCC1C1c2ccccc2-c2cncn21` (single isomer, unassigned) [Example 31d], > 25 µM. `CN(C)C(=O)c1ccc2c(c1)CCC(C1c3ccccc3-c3cncn31)C2O` (single isomer, unassigned) [Example 98a]: the EC50 came to 0.073 µM. Turning to `OC1c2ccnn2CCC1C1c2ccccc2-c2cncn21` (single isomer, unassigned) [Example 56b], the EC50 stood at 0.37 µM. For the molecule `OC1CC2(CC2)C1C1c2ccccc2-c2cncn21` (single isomer, unassigned) [Example 72f], the EC50 came out at 11 µM.

In the case of `OC1CCC(F)(F)CC1C1c2ccccc2-c2cncn21` (single isomer, unassigned) [Example 18g, 4,4-difluoro-2-(5H-imidazo[5,1-a]isoindol-5-yl)cyclohexan-1-ol], the EC50 came to 0.11 µM. For `NS(=O)(=O)c1ccc2c(c1)CCC(C1c3ccccc3-c3cncn31)C2O` (single isomer, unassigned) [Example 100b], the concentration giving a half-maximal response (EC50) worked out at 1.3 µM.

Consider `O[C@@H]1[C@@H]([C@H]2c3ccccc3-c3cncn32)CC12CCOCC2` [Example 57a, (1R,2R)-2-((S)-5H-imidazo[5,1-a]isoindol-5-yl)-7-oxaspiro[3.5]nonan-1-ol], for which the EC50 is 11 µM. As for `OC1C(C2c3ccccc3-c3cncn32)CC12CCOCC2` (single isomer, unassigned) [Example 57b], the EC50 was found to be 5 µM. Turning to `N[C@@H]1COC[C@@H]1[C@H]1c2ccccc2-c2cncn21` [Example 32d, (3S,4S)-4-[(5S)-5H-imidazo[4,3-a]isoindol-5-yl]oxolan-3-amine], the EC50 was > 25 µM. Regarding `Nc1cc2n(n1)CC[C@H]([C@H]1c3ccccc3-c3cncn31)[C@H]2O` [Example 161a, (4R,5R)-2-amino-5-((S)-5H-imidazo[5,1-a]isoindol-5-yl)-4,5,6,7-tetrahydropyrazolo[1,5-a]pyridin-4-ol], the concentration giving a half-maximal response (EC50) worked out at 18 µM.

In the case of `OC1C(C2c3ccccc3-c3cncn32)CCC12CCOCC2` (single isomer, unassigned) [Example 68f], the EC50 turned out to be 0.12 µM. For `OC1c2cnnn2CCC1C1c2ccccc2-c2cncn21` (single isomer, unassigned) [Example 146a], the EC50 worked out at 0.33 µM. The result for `OC1c2ncccc2CCC1C1c2ccccc2-c2cncn21` (single isomer, unassigned) [Example 63b] reads 19 µM; that for `O[C@@H]1c2cccnc2CC[C@@H]1[C@@H]1c2ccccc2-c2cncn21` [Example 31a, (5S,6R)-6-((R)-5H-imidazo[5,1-a]isoindol-5-yl)-5,6,7,8-tetrahydroquinolin-5-ol], > 25 µM; that for `O[C@@H]1c2ccncc2CC[C@H]1[C@H]1c2ccccc2-c2cncn21` [Example 08a, (5S,6S)-6-((S)-5H-imidazo[5,1-a]isoindol-5-yl)-5,6,7,8-tetrahydroisoquinolin-5-ol], 0.048 µM. The result for `CC1(C)CCCC(C)(C2c3ccccc3-c3cncn32)C1O` (single isomer, unassigned) [Example 90b] reads > 25 µM. The result for `NC(=O)c1ccc2c(n1)CCC(C1c3ccccc3-c3cncn31)C2O` (single isomer, unassigned) [Example 104h] reads 20 µM; that for `CC1(O)CCC1C1c2ccccc2-c2cncn21` (single isomer, unassigned) [Example 35c], > 25 µM; that for `NC(=O)c1ccc2c(n1)CCC(C1c3ccccc3-c3cncn31)C2O` (single isomer, unassigned) [Example 104d], 14 µM. Turning to `OC1CCCC1C1c2ccccc2-c2cncn21` (single isomer, unassigned) [Example 02g], the concentration giving a half-maximal response (EC50) worked out at 0.34 µM. The result for `CC1(C)OC(C)(C)C(C2c3ccccc3-c3cncn32)C1O` (single isomer, unassigned) [Example 84b] reads 0.067 µM. The result for `OC1c2nncn2CCC1C1c2ccccc2-c2cncn21` (single isomer, unassigned) [Example 146-1a] reads > 25 µM; that for `CS(=O)(=O)c1ccc2c(c1)CCC(C1c3ccccc3-c3cncn31)C2O` (single isomer, unassigned) [Example 36g], 19 µM. Turning to `CCS(=O)(=O)N1CCC2(CCC(C3c4ccccc4-c4cncn43)C2O)CC1` (single isomer, unassigned) [Example 76a], the EC50 is 9.5 µM. The result for `CC1(C)COCC(C2c3ccccc3-c3cncn32)C1O` (single isomer, unassigned) [Example 66b] reads 0.19 µM. The result for `NC(=O)c1ccc2c(n1)CCC(C1c3ccccc3-c3cncn31)C2O` (single isomer, unassigned) [Example 104f] reads 8.6 µM; that for `Cn1cc2c(n1)C(O)C(C1c3ccccc3-c3cncn31)CC2` (single isomer, unassigned) [Example 139-1e], > 25 µM.

Take `O[C@@H]1c2ccccc2CC[C@H]1[C@H]1c2ccccc2-c2cncn21` [Example 102e, (1S,2S)-2-((S)-5H-imidazo[5,1-a]isoindol-5-yl)-1,2,3,4-tetrahydronaphthalen-1-ol]: the EC50 came to 0.032 µM. The result for `N#Cc1ccc2c(c1)C(O)C(C1c3ccccc3-c3cncn31)CC2` (single isomer, unassigned) [Example 113c] reads 0.06 µM; that for `CC1(C)CCCC(C2c3ccccc3-c3cncn32)C1O` (single isomer, unassigned) [Example 24e], 0.13 µM. The result for `O[C@H]1CCC[C@H]1[C@H]1c2ccccc2-c2cncn21` [Example 02b, (1S,2S)-2-((S)-5H-imidazo[5,1-a]isoindol-5-yl)cyclopentan-1-ol] reads 0.12 µM. The result for `OC1c2cncnc2CCC1C1c2ccccc2-c2cncn21` (single isomer, unassigned) [Example 94b] reads 3.1 µM; that for `CC(C)(C)OC(=O)N1CCC(O)C(C2c3ccccc3-c3cncn32)C1` (single isomer, unassigned) [Example 11c, tert-butyl 4-hydroxy-3-(5H-imidazo[5,1-a]isoindol-5-yl)piperidine-1-carboxylate], > 25 µM.

What is called EC50 is the concentration giving half of the maximal effect.
